The record followed here is PMC5836741 (Journal of medicinal chemistry, 2017).

For experiment [1], the target named is T1, M2R (Homo sapiens, UniProt P08172).
T1 sequence (P08172 1-466): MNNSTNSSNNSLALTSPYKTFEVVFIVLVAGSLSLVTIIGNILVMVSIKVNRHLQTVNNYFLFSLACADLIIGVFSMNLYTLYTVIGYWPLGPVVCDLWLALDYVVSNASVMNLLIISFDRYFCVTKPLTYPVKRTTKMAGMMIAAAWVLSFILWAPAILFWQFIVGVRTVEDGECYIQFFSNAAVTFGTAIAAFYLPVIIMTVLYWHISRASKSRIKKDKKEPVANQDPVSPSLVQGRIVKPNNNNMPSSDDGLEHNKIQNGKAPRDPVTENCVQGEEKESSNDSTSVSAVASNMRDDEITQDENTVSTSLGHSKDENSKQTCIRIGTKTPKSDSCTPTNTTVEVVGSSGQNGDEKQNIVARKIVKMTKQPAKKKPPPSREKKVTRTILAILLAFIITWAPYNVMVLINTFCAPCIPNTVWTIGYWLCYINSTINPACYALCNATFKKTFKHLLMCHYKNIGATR
Briefly: Whole cell radioligand binding, CHO cells, M2R. To be noted: M2 vs M1.

Experiment [2] addresses T1, M2R. Briefly: β-Arrestin recruitment assay, HEK cells, M2-TEV-tTA. It counts as cell-based. The following applies: versus acetylcholine as reference, against the cAMP assay. (Recruitment of arrestin is a read-out of receptor activation apart from second messengers.)
In the next experiment the target is hM3 mAChR (Homo sapiens, UniProt P20309). The experiment can be described thus: IP-One accumulation assay, CHO cells, M3R. It counts as cell-based. The following applies: read-out: IP accumulation Emax M3R.
hM3 mAChR, sequence (P20309 whole entry): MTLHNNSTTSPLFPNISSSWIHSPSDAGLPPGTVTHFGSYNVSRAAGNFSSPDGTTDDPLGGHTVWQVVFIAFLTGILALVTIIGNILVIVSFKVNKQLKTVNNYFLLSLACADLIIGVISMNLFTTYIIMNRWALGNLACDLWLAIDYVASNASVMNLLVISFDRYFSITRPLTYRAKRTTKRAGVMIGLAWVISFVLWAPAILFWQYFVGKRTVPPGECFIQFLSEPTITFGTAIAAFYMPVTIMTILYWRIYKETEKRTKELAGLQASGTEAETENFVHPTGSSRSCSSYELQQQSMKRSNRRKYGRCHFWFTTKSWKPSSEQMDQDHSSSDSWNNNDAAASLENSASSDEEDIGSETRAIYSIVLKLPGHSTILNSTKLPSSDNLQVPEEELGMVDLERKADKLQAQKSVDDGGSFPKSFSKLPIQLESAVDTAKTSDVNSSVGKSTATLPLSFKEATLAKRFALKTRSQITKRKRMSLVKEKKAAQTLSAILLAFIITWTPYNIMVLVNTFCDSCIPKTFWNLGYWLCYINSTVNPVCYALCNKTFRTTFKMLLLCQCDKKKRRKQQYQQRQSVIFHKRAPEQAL
Another experiment concerns the target M3R (Homo sapiens, UniProt P20309). Briefly: ERK1/2 phosphorylation. The following applies: CHO, read-out: ERK1/2 phosphorylation Emax M3R.

M3R, sequence (P20309 whole entry): as above

On to `C[N+](C)(C)CCc1ccc2c(c1)OCC2.O=C[O-]` [Compound 28], for which the “selectivity over M1 receptor” value at M2R [1] came to 4 fold. Further, the bias toward arrestin on M2R [2] is reported as 20 fold.
Take `CC(=O)OCC[N+](C)(C)C` [acetylcholine]: the Emax at hM3 mAChR and at M3R was 100% each time.
